Reference: ChEMBL document CHEMBL1155583, “Steroidal saponins from Dracaena surculosa” (J Nat Prod, 2000)
Values after ≈ are worked out from the molar mass of the structure shown.

These compounds were tested on HL-60 (assay: Cytotoxicity against human HL60 cells by MTT assay).
Type: functional, cell-based

`C[C@@H]1CC[C@@]2(OC1)O[C@H]1C[C@H]3[C@@H]4CC=C5C[C@@H](O[C@@H]6O[C@H](CO)[C@@H](O)[C@H](O)[C@H]6O[C@@H]6O[C@@H](C)[C@H](O)[C@@H](O)[C@H]6O)CC[C@]5(C)[C@H]4CC[C@]3(C)[C@@]1(O)[C@@H]2C` and `C[C@@H]1CC[C@@]2(OC1)O[C@H]1C[C@H]3[C@@H]4CC=C5C[C@@H](O[C@@H]6O[C@H](CO)[C@@H](O[C@@H]7O[C@@H](C)[C@H](O)[C@@H](O)[C@H]7O)[C@H](O)[C@H]6O[C@@H]6O[C@@H](C)[C@H](O)[C@@H](O)[C@H]6O)CC[C@]5(C)[C@H]4CC[C@]3(C)[C@@]1(O)[C@@H]2C` are within 1.5-fold of each other in IC50: 5.2 µg/mL (≈ 7.04 µM) for the first, 4.2 µg/mL (≈ 4.75 µM) for the second.

In the case of `C[C@H]1CC[C@@]2(OC1)O[C@H]1C[C@H]3[C@@H]4CC=C5C[C@@H](O)C[C@@H](O[C@@H]6O[C@H](C)[C@H](O)[C@H](O)[C@H]6O[C@@H]6O[C@@H](C)[C@H](O)[C@@H](O)[C@H]6O)[C@]5(C)[C@H]4CC[C@]3(C)[C@H]1[C@@H]2C`, the IC50 is reported as 8.7 µg/mL (≈ 12 µM).
